Assay results taken from US20060281771A1, “SYNERGISTIC MODULATION OF FLT3 KINASE USING AMINOQUINOLINE AND AMINOQUINAZOLINE KINASE MODULATORS” (priority 2005, published 2006).
“Also recorded” adds a separate entry of the source.

Tests used:
[1] = cited from earlier work
[2] = Body weight and overt toxicity in tumor-bearing mice; conditions: alone or in combination
Procedure: Female athymic nude mice weighing no less than 20-21 grams were inoculated subcutaneously in the left inguinal region of the thigh with 5×10^6 tumor cells in a delivery volume of 0.2 mL. For regression studies, the tumors were allowed to grow to a pre-determined size prior to initiation of dosing. […] Mice were dosed orally by gavage with vehicle (control group) or compound at various doses twice-daily (b.i.d.) during the week and once-daily (q.d.) on weekends. […] If tumors in the control mice reached ˜10% of body weight (˜2.0 grams), the study was to be terminated. […] During the study, tumor growth was measured three times-a-week (M, W, F) using electronic Vernier calipers. Tumor volume (mm^3) was calculated using the formula […], where L=length (mm) and W=width (shortest distance in mm) of the tumor. […]
Female athymic nude mice weighing no less than 20-21 grams were inoculated subcutaneously in the left inguinal region of the thigh with 5×10^6 tumor cells in a delivery volume of 0.2 mL. For regression studies, the tumors were allowed to grow to a pre-determined size prior to initiation of dosing. […] During the study, tumor growth was measured three times-a-week (M, W, F) using electronic Vernier calipers. Tumor volume (mm^3) was calculated using the formula […], where L=length (mm) and W=width (shortest distance in mm) of the tumor. […]

[3] = test system: MV4-11 tumor xenografts; assay: MV4-11 human tumor xenograft regression model; format: in vivo, nude mice; conditions: Tipifarnib alone 50 mg/kg po
Procedure: Female athymic nude mice (CD-1, nu/nu, 9-10 weeks old) were obtained from Charles River Laboratories (Wilmington, Mass.) and were maintained according to NIH standards. All mice were group housed (5 mice/cage) under clean-room conditions in sterile micro-isolator cages on a 12-hour light/dark cycle in a room maintained at 21-22° C. and 40-50% humidity. Mice were fed irradiated standard rodent diet and water ad libitum. All animals were housed in a Laboratory Animal Medicine facility that is fully accredited by the American Association for Assessment and Accreditation of Laboratory Animal Care (AAALAC). […]
The time course of the inhibitory effects of FLT3 inhibitor compounds on the growth of MV4-11 tumors is illustrated in FIG. 1. […] Percent inhibition (% I) of tumor growth was calculated versus tumor growth in the vehicle-treated Control group on the last study day.
Statistical significance versus Control was determined by Analysis of Variance (ANOVA) followed by Dunnett's t-test: * p<0.05; ** p<0.01.
(See FIG. 2). […] Percent Inhibition was calculated versus the mean tumor weight in the vehicle-treated control group. Statistical significance versus Control was determined by ANOVA followed by Dunnett's t-test: ** p<0.01. […]

[4] = test system: MV4-11 AML cells; assay: Cell proliferation assay and combination index analysis, MV4-11; format: cell-based, human; conditions: single agent; depending on the cell type
Excerpt: (§1) All data points are an average of triplicate samples.
as §1

[5] = multicenter Phase II trial, relapsed AML
[6] = patients with relapsed and refractory AML

## Cn1cncc1C(N)(c1ccc(Cl)cc1)c1ccc2c(c1)c(-c1cccc(Cl)c1)cc(=O)n2C (single isomer, unassigned; (+)) [Tipifarnib, (+)-6-[amino(4-chlorophenyl)(1-methyl-1H-imidazol-5-yl)methyl]-4-(3-chlorophenyl)-1-methyl-2(1H)-quinolinone]
[1]; [5]
  >50% reduction in bone marrow blasts: 31 of 50
  complete responses (bone marrow blasts <5%): 17 of 50
[1]; [6]
  patients achieving complete remission: 2 patients
  response rate: ~30%
[2]; 9-day treatment
  overt toxicity: No overt toxicity
[2]; 16-day treatment
  overt toxicity: No overt toxicity
[3]; 9 days, Day 9
  effect on tumor volume vs control: not significantly reduced; also recorded: ineffective
[3]; 16 days
  effect on tumor growth: ineffective
[4]
  potency range: high nanomolar to high picomolar range
